Assay results: PubChem BioAssay AID1259418 (Broad Institute, 2018)
Values joined by “and” are separate entries in the source; they are usually repeats but may differ in a detail not shown here. Equal values may be shown once. Records with an inconclusive call do not appear. Active and inactive are the calls of the source.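 How the source made its calls: active means fitted half-maximal concentration of signal decrease at or below twice the sample's top tested concentration; inconclusive means flat curve between -70 and -30 percent, or poor fit; inactive means flat within 30 percent, signal rise, or potency above limit.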 Positions of bridges follow the written chain, without caps; N, C: chain ends. Non-standard residues stand in square brackets, D forms with d. Residues, ends and D or L forms follow the SMILES beside them. ξ: configuration not given here. *: point of attachment. Heptanoyl(6-Me) = CC(C)CCCCC(=O)*; ξDab = NCCC(N)C(=O)O; ξT = CC(O)C(N)C(=O)O

Biological target: T. gondii ME49Luc in IFN-y HeLa, luciferase, 72 h
Experiment: inhibitors of Toxoplasma growth in IFN-γ-primed HeLa – cell-based, ME49Luc, luciferase, 72 h, dose response (AID 1259418)

SMILES	AC50
COc1cc(NC(=O)Nc2ccc(-c3nc(-c4ccc(C)cc4C)co3)cc2)cc(OC)c1	25.7 µM
O=C(c1cnccn1)N1CC(=O)N2[C@H](CO)[C@@H](c3ccc(/C=C/c4ccccc4)cc3)[C@@H]2C1	21.7 µM and 13.2 µM
O=C(NCCCN1CCCC1=O)C1CCN(Cc2cc3ccccc3n2Cc2cccc(F)c2)CC1	30.3 µM
CCOc1ccc(N(Cc2nc(-c3ccc(OC)cc3)oc2C)S(=O)(=O)c2ccccc2)cc1	3.96 µM and 3.81 µM
CCCCNC(=O)CCC1N=C2c3ccccc3N=C(SCc3cccc(Cl)c3)N2C1=O (centres undefined)	14.6 µM
COc1cccc(S(=O)(=O)N2CCCCN3[C@H](CO)[C@H](c4ccc(C#CCC(C)C)cc4)[C@H]3C2)c1	16.5 µM and 1.89 µM and 10.4 µM
COc1ccc(NS(=O)(=O)c2cc3c4c(c2)CCC(=O)N4CCC3)cc1OC	28.4 µM
O=C(Cc1cccnc1)N1CC(=O)N2[C@H](C1)[C@@H](c1ccc(/C=C/c3ccccc3)cc1)[C@@H]2CO	19.8 µM
N#C[C@H]1[C@@H](c2ccc(C3=CCCCC3)cc2)[C@@H](CO)N1C(=O)Nc1ccccc1F	23.2 µM
COc1ccc(NC(=O)CN2CCC3(CC2)N=C(c2cccc(C)c2)C(=O)N3)c(OC)c1	29.4 µM
O=C(CCC1N=C2c3ccccc3N=C(SCc3ccccc3F)N2C1=O)NCc1ccccc1 (centres undefined)	29.4 µM
CN(C[C@H]1N[C@@H](CO)[C@@H]1c1ccc(C2=CCCC2)cc1)C(=O)c1cccc(F)c1	15.2 µM and 3.49 µM
C[C@H](CO)N1C[C@H](C)[C@H](CN(C)C(=O)c2cc(Cl)cc(Cl)c2)OCc2ccccc2-c2c(n(C)c3ccccc23)C1=O	9.22 µM
Nc1ncnc2c1ncn2[C@@H]1O[C@H](C[C@@H](N)CC[C@H](N)C(=O)O)[C@@H](O)[C@H]1O	0.907 µM
Fc1ccc(CSc2nc(NCc3ccccc3)c3ccccc3n2)cc1	17.8 µM
CCOc1ccccc1-c1nc(CN(c2ccccc2OC)S(=O)(=O)c2ccccc2)c(C)o1	7.68 µM
COc1cccc(S(=O)(=O)N2CCCCN3[C@H](CO)[C@H](c4ccc(-c5ccccc5)cc4)[C@H]3C2)c1	5.11 µM
Cc1ccc(-c2coc(-c3ccc(NS(=O)(=O)c4ccc(Br)cc4C)cc3)n2)c(C)c1	26.7 µM
N#C[C@H]1[C@H](c2ccc(-c3cccc(F)c3)cc2)[C@H](CO)N1C(=O)NC1CCCC1	18.9 µM
O=C(c1cccn2c(-c3ccc(F)cc3)nnc12)N1CCC(O)(c2ccc(Cl)cc2)CC1	25.4 µM
Cc1ccc(S(=O)(=O)N2CCC3(CC2)NCCN=C3NCc2ccccc2Cl)cc1C	12.2 µM
CCN(CCCNC(=O)CC1Nc2c3ccccc3nc(=S)n2C1=O)c1ccccc1 (centres undefined)	> 39 µM (inactive)
Cc1ccc(S(=O)(=O)N2CCC3(CC2)NCCN=C3NCc2ccccc2)c(C)c1	19.2 µM

SMILES	AC50
Cc1ccccc1S(=O)(=O)N1CCC(C(=O)NCCc2csc(-c3ccccc3)n2)CC1	25.6 µM
c1ccc2c(Oc3nc(Nc4ccc(N5CCOCC5)cc4)c4ncn(C5CCCCC5)c4n3)cccc2c1	16.4 µM
O=C(Nc1ccc(F)cc1)N1CC(=O)N2[C@H](CO)[C@@H](c3ccc(-c4cccc(F)c4)cc3)[C@@H]2C1	19.9 µM
CN1C(=O)CCc2cc(NC(=O)C(F)(F)F)ccc21	17.1 µM
CCCCC(CC)CNC(=O)CC1Nc2c3ccccc3nc(=S)n2C1=O (centres undefined)	17.9 µM
O=C(NCCCN1CCCC1)C1CCN(Cc2cc3ccccc3n2Cc2ccccc2Cl)CC1	25.8 µM
NC(N)=N/N=C/c1c(Cl)cccc1Cl	19.7 µM
OC[C@H]1N[C@@H](CNCC2CCC2)[C@@H]1c1ccc(C2=CCCCC2)cc1	12.4 µM and 20.4 µM
Cc1ccccc1CN1C[C@@H]2c3nc(N4CCCC(C)C4)ncc3CS(=O)(=O)[C@H]2C1 (some centres undefined)	24.5 µM and 4.74 µM
COc1ccc(-c2nc(N(C)Cc3ccco3)c3ccccc3n2)cc1	17 µM
O=C(O)CCc1nc2sc3c(c2c(=O)[nH]1)CCCC3	> 20 µM (inactive)
Cc1ccc(NC(=O)N2CCN(Cc3nc(-c4cccc(Cl)c4)oc3C)CC2)cc1F	7.24 µM
COc1ccc(CN2C[C@@H]3C[C@H](C(=O)Nc4ccccc4)[C@@H](C2)O3)cc1	> 39 µM (inactive)
Cc1ccc(Cn2c(=O)c3nn(C)cc3n3c(=O)n(Cc4nc(-c5ccccc5)oc4C)nc23)cc1	13.1 µM
O=C(CCn1c2c(c3ccccc31)CCCC2)N1CCC(c2ccncc2)CC1	15.3 µM
CCOc1ccc(N(Cc2nc(-c3ccccc3)oc2C)S(=O)(=O)c2ccccc2)cc1	7.95 µM
Cc1cc(C2CCCN2Cc2cn(C(C)C)c3ccccc23)no1 (centres undefined)	35.1 µM
CS(=O)(=O)N1CC(=O)N2[C@H](CO)[C@@H](c3ccc(C#Cc4ccc(F)cc4)cc3)[C@H]2C1	39 µM
Cc1cccc(-c2nc(CN(c3ccccc3)S(=O)(=O)c3ccccc3)c(C)o2)c1	5.9 µM and 16.3 µM
N#C[C@H]1[C@@H](c2ccc(-c3cccc(F)c3)cc2)[C@H](CO)N1C(=O)NC1CCCC1	10.1 µM
Cc1cccc(-c2nc(Cn3nnc(-c4nc(-c5ccncc5)no4)c3C)c(C)o2)c1	8.63 µM
O=C(c1ccc(-n2nc(C(F)(F)F)c3c2CCCC3)cc1)N1CCC2(CC1)OCCO2	1.4 µM
COc1ccc(-c2nc(NCCCN3CCN(Cc4ccccc4)CC3)c3ccccc3n2)cc1	> 39 µM (inactive)

SMILES	AC50
Cc1cc(C)c(S(=O)(=O)N2CCC[C@@H]2C(=O)NCCc2csc(C)n2)c(C)c1	31.9 µM
COc1ccc2c(c1)NC1(CCN(C(=O)c3c(F)cccc3F)CC1)c1cccn1-2	> 39 µM (inactive)
COc1ccc(N(Cc2nc(-c3ccc(C)cc3)oc2C)S(=O)(=O)c2ccccc2)cc1	15.2 µM
Cc1cccc(CNC2=NCCNC23CCN(S(=O)(=O)c2cc(C)c(C)cc2C)CC3)c1	5.49 µM
Cc1cccc(NC(=O)c2cc(-c3cnc(N4CCOCC4)nc3)cn2CC2CC2)c1	22.2 µM
O=C(Cc1cccnc1)N1CC(=O)N2[C@H](CO)[C@H](c3ccc(C#CC4CCCCC4)cc3)[C@H]2C1	19.4 µM
O=C(c1cccc(F)c1)N1CC(=O)N2[C@H](CO)[C@H](c3ccc(/C=C/c4ccccc4)cc3)[C@@H]2C1	19.6 µM
Cc1ccc(CNC(=O)CC2Nc3c4ccccc4nc(=S)n3C2=O)cc1 (centres undefined)	31.5 µM
COc1ccc(-c2ccc3c(c2)[C@H]2[C@H](CCN2C(=O)c2cccc(F)c2)[C@H](CO)N3)cc1	16 µM
COc1ccc(CNC2=NCCNC23CCN(S(=O)(=O)c2ccc(C(C)C)cc2)CC3)cc1	19.9 µM
COc1cccc(S(=O)(=O)N2CCCCN3[C@H](CO)[C@H](c4ccc(C#CCC(C)C)cc4)[C@@H]3C2)c1	13.6 µM and 2.35 µM
Cc1ccn(CCNc2nccc(-c3c(C)nn(C)c3C)n2)n1	18.8 µM
CCC(=O)N1CC[C@@H]2[C@H]1c1cc(-c3ccc(C#N)cc3)ccc1N(C)[C@H]2CO	> 42 µM (inactive)
Cc1ccc(-c2nc(CN(c3ccccc3)S(=O)(=O)c3cccs3)c(C)o2)cc1	10.8 µM
O=C(Nc1ccc(F)cc1)N1C[C@@H]2N[C@H](C1)C2c1ccc(/C=C/c2ccccc2)cc1 (some centres undefined)	10.3 µM and 2.14 µM
CC(C)(C)c1ccc(CSC2=Nc3ccccc3C3=NC(CC(=O)NCc4ccco4)C(=O)N23)cc1 (centres undefined)	27.4 µM
COc1cccc(-c2nc(C)c(-c3ccc(SCc4ccc(F)cc4)nn3)s2)c1	6.5 µM
COc1ccc(CNC2=NCCNC23CCN(S(=O)(=O)c2cc(C)c(C)cc2C)CC3)cc1	12.6 µM
O=C(Nc1ccc(-c2nc(-c3ccccc3)co2)cc1)c1cccc(F)c1	30.6 µM
O=C(NCc1cccnc1)C1CCN(Cc2cc3ccccc3n2Cc2ccc(F)cc2)CC1	38.3 µM
O=C(c1ccc(F)cc1)N1CC(=O)N2[C@@H](CO)[C@H](c3ccc(C#CCC4CCCC4)cc3)[C@@H]2C1	17.9 µM and 10.9 µM
CC(C)c1ccc(S(=O)(=O)N2CCC(C(=O)NCCc3csc(-c4ccccc4)n3)CC2)cc1	12.7 µM
COc1ccc(S(=O)(=O)N2CCC(C(=O)NCCc3csc(-c4ccccc4)n3)CC2)cc1	> 20 µM (inactive)

SMILES	AC50
CC(C)CCCCC(=O)NC(CCN)C(=O)NC(C(=O)NC(CCN)C(=O)NC1CCNC(=O)C(C(C)O)NC(=O)C(CCN)NC(=O)C(CCN)NC(=O)[C@H](CC(C)C)NC(=O)[C@@H](CC(C)C)NC(=O)C(CCN)NC1=O)C(C)O (stereo partly drawn) ({Heptanoyl(6-Me)}-[ξDab][ξT][ξDab][ξDab][ξDab][dL]L[ξDab][ξDab][ξT]; lactam 4-C)	18.3 µM
COc1cccc(-c2ccc3c(c2)[C@H]2[C@H](CCN2S(=O)(=O)c2ccccc2F)[C@@H](CO)N3)c1	25 µM and 6.64 µM
O=C(Nc1ccc(F)cc1)N1CC(=O)N2[C@H](C1)[C@H](c1ccc(-c3cccc(F)c3)cc1)[C@@H]2CO	17.9 µM
CCc1cnc(N2[C@H](C#N)[C@H](c3ccc(C#Cc4ccccc4F)cc3)[C@@H]2CO)s1	19.4 µM
COc1cccc(-c2ccc(C3[C@@H]4CN(Cc5ccccn5)C[C@H]3N4)cc2)c1 (some centres undefined)	15.6 µM
CCOc1ccccc1-c1nc(CN(c2cccc(OC)c2)S(=O)(=O)c2ccccc2)c(C)o1	> 39 µM (inactive)
CCCCNC(=O)CCC1N=C2c3ccccc3N=C(SCc3ccc(C)cc3C)N2C1=O (centres undefined)	25.1 µM
O=C(Nc1cccc(F)c1)N1CCCCN2[C@H](CO)[C@@H](c3ccc(C#Cc4cccnc4)cc3)[C@H]2C1	19.1 µM
CCc1cnc(N2[C@@H](C#N)[C@@H](c3ccc(C4=CCCCC4)cc3)[C@@H]2CO)s1	> 20 µM (inactive) and 8.88 µM
COc1ccc(-c2nc(CN(c3cccc(OC)c3)S(=O)(=O)c3ccccc3)c(C)o2)cc1	9.75 µM
O=C(c1ccccc1Cl)N1CCC2(CC1)Nc1cc(F)ccc1-n1cccc12	> 39 µM (inactive)
COc1ccc2c(c1)NC1(CCN(C(=O)c3ccc(F)cc3)CC1)c1cccn1-2	> 20 µM (inactive)
O=C(NCCc1csc(-c2ccccc2)n1)C1CCN(S(=O)(=O)c2cccc(Cl)c2)CC1	> 39 µM (inactive)
Cc1cccc(C(=O)N2CCC3(CC2)Nc2cc(F)ccc2-n2cccc23)c1	> 39 µM (inactive)
CC(C)CC#Cc1ccc([C@@H]2[C@@H](CO)N3C(=O)CN(C(=O)c4cccc(F)c4)C[C@@H]23)cc1	15 µM and 9.46 µM
O=C(CC1Nc2c3ccccc3nc(=S)n2C1=O)NCc1ccc2c(c1)OCO2 (centres undefined)	> 39 µM (inactive)
O=C1CNC[C@@H]2[C@@H](c3ccc(C#Cc4cccnc4)cc3)[C@@H](CO)N12	14.1 µM and 18.2 µM
O=S(=O)(c1ccccc1)N1CCc2c([nH]c3ccccc23)C1c1cc(F)ccc1F (centres undefined)	12.6 µM
Cn1cc(-c2cnc(Nc3ccccc3)nc2)cc1C(=O)Nc1cccc(O)c1	23.6 µM
CC(=O)NCc1nnn2c1CN(c1ncccn1)CCC2	10.9 µM
